The subject of data set [1] is Stat3. Nature of the data set: Stat3 signaling, growth inhibition and apoptosis in cells that contain constitutive Stat3 activity. Type of data set: cell-based. Conditions: Src-transformed mouse fibroblasts, human tumor cells of the breast, prostate, mouse melanoma cells. The text has this:
Methods of the invention comprise inhibiting function of a STAT by contacting a cell expressing a STAT with a platinum complex of the invention wherein the complex is taken in or otherwise provided inside the cell. Platinum complexes of the invention can physically interact with the DNA-binding domain of Stat3 and thereby disrupts its ability to bind to DNA.

Data set [2] addresses T1, Stat3 (Mus musculus, UniProt P42227).
T1 construct: Nuclear extracts were prepared from NIH3T3/hEGFR cell that overexpress human epidermal growth factor (EGF) receptor and stimulated with EGF; endogenous in cells; host or cells: NIH3T3/hEGFR fibroblasts, EGF-stimulated (6 ng/ml, 15 min), nuclear extract
Kind of data set: EMSA of nuclear extracts, Stat3 DNA-binding activity to hSIE probe. Type of data set: biochemical. Conditions: in vitro. The method, then:
Nuclear Extract Preparation and Analysis by EMSA of HK-Designated Platinum Complexes.
Nuclear extracts were prepared from NIH3T3/hEGFR cell that overexpress human epidermal growth factor (EGF) receptor and stimulated with EGF (6 ng/ml) for 15 min. Nuclear extracts were pre-incubated with compounds for 30 min at room temperature prior to incubation with radiolabeled probe. The ^32P-labeled oligonucleotide probe used is hSIE (high affinity sis-inducible element, m67 variant, 5′-[…]-3′) (SEQ ID NO:1) that binds both Stat1 and Stat3.
Other platinum (IV) complexes were evaluated for inhibitory activity against STAT DNA-binding in vitro.

The nature of data set [3]: Reduction of CPA-7 platinum complex by glutathione (UV kinetics at 226 nm). Type of data set: physicochemical. Conditions: 20 μm CPA-7 in PBS/20% DMSO with 10 mM glutathione. The method, then: FIGS. 5A-C show inertness of CPA-7 platinum complex to reduction by glutathione. 20 μm CPA-7 in PBS/20% DMSO with […]. […] Reduction is attributed to room light.
FIGS. 5A-C show the inertness of CPA-7 to glutathione reduction. In the figures, 20 μm CPA-7 was added in PBS/20% DMSO with 10 mM glutathione. The readings were initiated in late evening where data points were collected every 10 minutes at the lambda max for CPA-7, 226 nm. […] Data was collected on a Varian Cary 50 fitted with a fibreoptic probe in the kinetics mode. The Cary 50 uses a pulsed Xenon lamp with discontinuous irradiation between readings. A 25-mL volumetric flask was used for the solution with a magnetic stirring bar at slow speed.

The test system of the next data set is A549 cells. Kind of data set: MTT assay, percent survival of A549 cells. The data set is classed as cell-based. Conditions: A549; for IC50: Table 2, read-out: Calculated IC 50 (uM concentration).

“Also recorded” adds a separate entry of the source. Where two headings read alike, the source gives them in different places.

The values that follow come from patent US7759510B2, “Platinum complexes and methods of use” (University of South Florida, priority 2003, dated 2010).

T1 sequence (P42227 whole entry): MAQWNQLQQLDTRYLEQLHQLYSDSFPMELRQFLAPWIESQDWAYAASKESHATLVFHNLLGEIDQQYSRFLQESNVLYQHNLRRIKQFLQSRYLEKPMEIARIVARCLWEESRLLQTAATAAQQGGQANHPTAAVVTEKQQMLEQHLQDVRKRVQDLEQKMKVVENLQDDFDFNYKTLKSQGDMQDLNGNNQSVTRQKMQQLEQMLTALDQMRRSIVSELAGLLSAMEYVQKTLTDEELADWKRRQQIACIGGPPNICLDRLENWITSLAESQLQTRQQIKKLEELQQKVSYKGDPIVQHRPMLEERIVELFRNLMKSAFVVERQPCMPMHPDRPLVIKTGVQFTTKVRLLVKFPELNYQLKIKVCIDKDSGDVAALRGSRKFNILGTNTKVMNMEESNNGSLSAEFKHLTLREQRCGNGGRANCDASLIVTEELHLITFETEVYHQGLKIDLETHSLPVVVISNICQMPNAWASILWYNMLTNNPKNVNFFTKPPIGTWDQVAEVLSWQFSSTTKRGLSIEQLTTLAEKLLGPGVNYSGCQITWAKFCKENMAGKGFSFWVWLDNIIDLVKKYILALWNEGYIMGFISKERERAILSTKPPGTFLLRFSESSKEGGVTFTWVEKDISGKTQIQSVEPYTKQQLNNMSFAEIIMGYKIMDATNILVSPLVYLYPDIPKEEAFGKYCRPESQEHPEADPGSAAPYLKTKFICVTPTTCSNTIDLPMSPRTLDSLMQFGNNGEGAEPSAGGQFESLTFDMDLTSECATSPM

On to `O=[N+]([O-])[Pt]1([Cl])([Cl])([Cl])[NH]CC[NH]1` [CPA-1], for which, in the data set on Stat3 [1], the “Cell growth inhibition and apoptosis” value was “induce cell growth inhibition and apoptosis”; the Stat3 signaling function result is listed as “abrogate Stat3 signaling function”.
As for `[NH2][Pt]([NH2])([Cl])([Cl])([Cl])[N+](=O)[O-]` [CPA-7], in the data set on Stat3 [1], the “Cell growth inhibition and apoptosis” value was “induce cell growth inhibition and apoptosis”; the Stat3 signaling function entry was “abrogate Stat3 signaling function”. In addition, at Stat3 [2], the “Disruption of Stat3 activity / ability to bind its consensus binding sequence” value (“Disruption of Stat3 activity / ability” below) is “strongly disrupt Stat3 activity”. Besides, in data set [3], the “Reduction by glutathione (GSH)” value is “stability against GSH reduction; also recorded: not appreciably reduced by GSH” and the “Sensitivity to light (reduction by room light)” value is “sensitivity to light”.
As for `Nc1cccc2c(=O)[nH][n]([Pt]([NH2])([NH2])([Cl])([Cl])[N+](=O)[O-])c(=O)c12` [CPA-51], the “Average Absorbance” value with A549 cells (Table 1, 10 μM) came to 2.4925; with A549 cells (Table 1, 20 μM), 2.5760; in the data set with A549 cells (Table 1, 30 μM) it was 2.3214; in the data set on A549 cells (Table 1, 40 μM) it was 2.0616; in the data set on A549 cells (Table 1, 50 μM), 1.3869; in the data set with A549 cells (Table 1, 60 μM), 0.8807. Further, the “Average Absorbance” value in the data set with A549 cells (Table 1, 70 μM) was found to be 1.0819; in the data set on A549 cells (Table 3, 10 μM), 2.4744; in the data set with A549 cells (Table 3, 20 μM), 2.4868; in the data set on A549 cells (Table 3, 30 μM), 2.0998; with A549 cells (Table 3, 40 μM), 1.4758; in the data set with A549 cells (Table 3, 50 μM), 0.9352. The “Average Absorbance” value is reported as 0.7084 in the data set on A549 cells (Table 3, 60 μM) and 0.7058 in the data set on A549 cells (Table 3, 70 μM). For the same molecule, the “Percent Survival” value with A549 cells (Table 1, 10 μM) came to 105.5652%; in the data set on A549 cells (Table 1, 20 μM), 109.1017%; in the data set with A549 cells (Table 1, 30 μM) it was 98.3186%; with A549 cells (Table 1, 40 μM), 87.3152%; in the data set with A549 cells (Table 1, 50 μM) it was 58.7396%; in the data set with A549 cells (Table 1, 60 μM), 37.3004%. Also, the “Percent Survival” value with A549 cells (Table 1, 70 μM) amounted to 45.8219%; in the data set with A549 cells (Table 3, 10 μM), 101.2895%; in the data set on A549 cells (Table 3, 20 μM) it was 101.7970%; in the data set with A549 cells (Table 3, 30 μM), 85.9552%; in the data set on A549 cells (Table 3, 40 μM), 60.4118%; in the data set with A549 cells (Table 3, 50 μM), 38.2824%. In addition, the “Percent Survival” value in the data set on A549 cells (Table 3, 60 μM) is 28.9983%; with A549 cells (Table 3, 70 μM), 28.8919%. Also, the IC50 in the data set with A549 cells (linear trend from percent survival vs. concentration data of Table 1) is 61.2 µM. Moreover, the “Disruption of Stat3 activity / ability” value at Stat3 [2] is on record as “strongly disrupt Stat3 activity”.
With `[NH2][Pt]([NH2])([Cl])([Cl])([N]1C(=O)CC(C(=O)O)NC1=O)[N+](=O)[O-]` (stereo not shown) [CPA-55], the “Average Absorbance” value with A549 cells (Table 1, 10 μM) amounted to 2.4481; in the data set on A549 cells (Table 1, 20 μM) it was 2.3731; in the data set with A549 cells (Table 1, 30 μM), 2.3268; in the data set with A549 cells (Table 1, 40 μM), 1.3780; in the data set with A549 cells (Table 3, 10 μM), 2.4587; with A549 cells (Table 3, 20 μM), 2.4875. Besides, the “Average Absorbance” value with A549 cells (Table 3, 30 μM) amounted to 1.6902; in the data set with A549 cells (Table 3, 40 μM), 0.6503; in the data set on A549 cells (Table 3, 50 μM) it was 0.4894; in the data set with A549 cells (Table 3, 60 μM), 0.7082; with A549 cells (Table 3, 70 μM), 0.5733. Further, the “Percent Survival” value in the data set on A549 cells (Table 1, 10 μM) came out at 103.6847%; in the data set with A549 cells (Table 1, 20 μM), 100.5082%; in the data set on A549 cells (Table 1, 30 μM), 98.5473%; in the data set on A549 cells (Table 1, 40 μM), 58.3626%; in the data set on A549 cells (Table 3, 10 μM), 100.6468%; in the data set on A549 cells (Table 3, 20 μM), 101.8257%. Further, the “Percent Survival” value in the data set with A549 cells (Table 3, 30 μM) amounted to 69.1883%; in the data set with A549 cells (Table 3, 40 μM), 26.6200%; in the data set with A549 cells (Table 3, 50 μM), 20.0336%; with A549 cells (Table 3, 60 μM), 28.9901%; in the data set on A549 cells (Table 3, 70 μM) it was 23.4680%. For the same molecule, in the data set with A549 cells (extrapolated from incomplete data (10-40 uM; CPA-31 10-30 μM), outside the measured range), the IC50 is 54.2 µM. Besides, the “Disruption of Stat3 activity / ability” value at Stat3 [2] was “strongly disrupt Stat3 activity”.
